Consider one molecule from US8821922B2, “Compositions and methods for polymer-caged liposomes” (Northwestern University, priority 2007, dated 2014).

The experiment concerns KB epidermoid carcinoma cells. The experiment is described as follows: Cytotoxicity study of doxorubicin-loaded liposomes (Guava ViaCount Assay). In kind it is cell-based. Particulars: Homo sapiens, 2 h exposure, further 48 h in fresh medium, viable cells counted by Guava ViaCount. As for the experimental part:
Cytotoxictity assay were conducted using the Guava ViaCount Assay system.
Initially, acetylene-functionalized PCLs were prepared using propargyl-modified diamine cross-linkers. Azido-poly(ethylene glycol)-modified folates were then conjugated to the acetylene groups on the surface of PCLs catalyzed by Cu(I) (FIG. 9) to present folate groups on the PCL surface. The folate conjugation to doxorubicin-loaded PCLs indeed increased the drug efficacy against cancer cells as shown through an in vitro model study against KB epidermoid carcinoma cells.
KB cells were continuously cultured in folic acid-free medium supplemented with 10% heat-inactivated fetal bovine serum at 37° C. in a humidified atmosphere containing 5% CO2. The cells were seeded into several 48-well plates at 100,000 cells per well. The plates were then returned to the incubator and the cells were allowed to grow to confluence for 24 h. The media in the wells were replaced with the pre-prepared growth medium-drug-loaded PCL mixture (200 μL of solution at the appropriate Doxorubicin concentrations). The PCL-treated cell cultures were then further incubated for 2 h in a humidified atmosphere containing 5% CO2 at 37° C., after which the growth medium—drug-loaded PCL mixture was removed by aspiration. […] The viable cells were then counted by Guava ViaCount Assay.

Take `COc1cccc2c1C(=O)c1c(O)c3c(c(O)c1C2=O)C[C@@](O)(C(=O)CO)C[C@@H]3O[C@H]1C[C@H](N)[C@H](O)[C@H](C)O1` [free DXR, doxorubicin]: the IC50 – broadly, the concentration that inhibits the measured activity by half – came to 100 nM.
